The test system of data set [1] is 'Tegan Blue' Japanese plum fruit. The data set can be described thus: climacteric ethylene level in 'Tegan Blue' plum fruit after fumigation. As to conditions: for level of climacteric ethylene, suppressed, in comparison to the solely ethylene treated fruit: 'Tegan Blue' plum, ethylene only 4.73 μmol kg^-1 h^-1. The format is in vivo.
For data set [2] the test system is unchanged. Nature of the data set: climacteric respiration (CO2 production) in 'Tegan Blue' plum fruit. The format is in vivo. As to conditions: ethylene only 0.72 mmol CO2 kg^-1 h^-1.
Data set [3] relates to 'Arctic Pride' nectarine fruit. Nature of the data set: climacteric ethylene level in 'Arctic Pride' nectarine fruit after fumigation. The format is in vivo. The settings on record: BC 50 nLL^-1 + ethylene, ethylene only 0.414 μmol kg^-1 h^-1.
The test system of data set [4] is 'Arctic Pride' nectarine fruit. Nature of the data set: climacteric respiration (CO2 production) in 'Arctic Pride' nectarine fruit. The format is in vivo. As to conditions: ethylene only 0.31 mmol CO2 kg^-1 h^-1.
The next data set has as its system WX17 wax flower. The data set can be described thus: flower/bud abscission in WX17 wax flower. The format is in vivo, Wax flower (Chamelaucium Desf.). The settings on record: BC 100 nLL^-1 fumigation followed by ethylene exposure (10 μLL^-1). The procedure:
(§1) To evaluate the effects of BC and NC on flower abscission, flowering stems of Wax flower (Chamelaucium Desf.) (WX17, WX73 and WX107) were collected from mature bushes grown at Department of Agriculture and Food Western Australia (DAFWA), Perth (31° 58′ 55″ S/115° 51′ 47″ E). Collected stems were immediately placed upright in buckets with water and recut at 20-25 cm in length (from the cut end to the most extreme opened-flowers). The flower stalks were treated similarly as the fruits with BC (0-100 nLL^−1) or NC (0-100 nLL^−1) and ethylene. The experiments were laid out by following CRD design, having five replications for each treatment and five stalks in each replication. During the treatment period, the flower stalks were placed in small plastic bottles with distilled water. A cone made of nylon mesh was placed at the base of the stalks to check the number of abscised flowers. […]
(§2) The experimental data were analysed following one-way analysis of variance (ANOVA) by using Genstat 13 (release 13.1; Lawes Agricultural Trust, Rothamsted Experimental Station, Harpenden, UK). The effects of various treatments and their interactions were assessed and least significant differences (Fisher's LSD) were calculated by F test at 5% level of significance.

For another data set, the system named is WX73 wax flower. Nature of the data set: flower/bud abscission in WX73 wax flower. The format is in vivo, Wax flower (Chamelaucium Desf.). The procedure:
as §1, §2

A short description of data set [5]: stability at room temperature. The format is physicochemical.
The next data set is described as follows: solubility in water. The format is physicochemical.

As for `CC1=CC1` [1-MCP, 1-Methylcyclopropene, reference compound], the “level of climacteric ethylene, suppressed, in comparison to the solely ethylene treated fruit” value in data set [1] (1000 nLL^-1 1-MCP fumigation 18 hr + ethylene (10 μL L^-1, 24 hr)) worked out at 0.70 fold. Moreover, in data set [2] (1-MCP 1000 μLL^-1 + ethylene), the “climacteric respiration, suppressed, than the solely ethylene treated fruit” value is 0.77 fold.
Consider `c1ccc2c(c1)C2` [BC, benzocyclopropene], for which the “level of climacteric ethylene, suppressed, in comparison to the solely ethylene treated fruit” value in data set [1] (100 nLL^-1 BC fumigation 18 hr + ethylene (10 μL L^-1, 24 hr)) is given as 0.80 fold. For the same molecule, the “effect on climacteric ethylene and respiration compared with 1-MCP (1000 nL L^-1)” value in data set [1] (BC 100 nL L^-1 versus 1-MCP 1000 nL L^-1, 'Tegan Blue' and 'Fortune' plum, 'Arctic Pride' nectarine) is “non-significant differences”. The “levels of ethylene, suppressed, than the solely ethylene treated fruit” value in data set [3] worked out at 0.63 fold. In addition, in data set [2] (BC 100 nLL^-1 + ethylene), the “climacteric respiration, suppressed, than the solely ethylene treated fruit” value is on record as 0.83 fold. Besides, the results for the “suppression of respiration climacteric in comparison to the solely ethylene treated fruit” value in data set [4] (BC 50 nLL^-1 + ethylene) and in data set [4] (BC 50 nLL^-1 without ethylene) were 0.77 fold and 0.71 fold, respectively. For the same molecule, the “rate of flower/bud abscission” value is recorded as 6.05% with WX17 wax flower, 22.43% with WX73 wax flower (50 nL L^-1 BC followed by ethylene treatment) and 28.40% in the data set with WX73 wax flower (100 nL L^-1 BC followed by ethylene treatment). In addition, the stability result in data set [5] is listed as “stable at room temperature for several months”. In “solubility in water”, the solubility in water result is reported as “only partially soluble in water”.

The record behind these values is patent publication US20190359547A1, “METHOD OF RETARDING AN ETHYLENE RESPONSE” (CURTIN UNIVERSITY OF TECHNOLOGY, priority 2016, published 2019).
